Each block holds one compound with its values, some of them ahead of it.
Key:
[1] = Half life of the compound in water; format: physicochemical
[2] = Drug metabolism in PBS buffer assessed as compound hydrolysis; format: physicochemical
[3] = Drug metabolism in 0.9% NaCl assessed as compound hydrolysis; format: physicochemical
[4] = molecular target: T1, Gastrin-releasing peptide receptor (Homo sapiens, UniProt P30550); experiment: Displacement of [125I]-Tyr4-bombesin from GRP receptor in human PC3 cells after 1 hr by gamma-counting analysis; format: cell-based, PC-3
[5] = system: Kidney; experiment: Biodistribution in kidney of NMRI nude mouse xenografted with human PC3 cells after 182 mins by gamma-counting analysis; format: ADME, organism-based, PC-3; details: in vivo
[6] = system: Liver; experiment: Biodistribution in liver of NMRI nude mouse xenografted with human PC3 cells after 104 mins by gamma-counting analysis; format: ADME, organism-based, PC-3; details: in vivo
[7] = system: Bone; experiment: Biodistribution in bone of NMRI nude mouse xenografted with human PC3 cells after 104 mins by gamma-counting analysis; format: ADME, organism-based, Bone element, PC-3; details: in vivo
[8] = Ratio of biodistribution in tumor to muscle of NMRI nude mouse xenografted with human PC3 cells after 182 mins by gamma-counting analysis; format: ADME, organism-based, PC-3; details: in vivo
[9] = Biodistribution in fat of NMRI nude mouse xenografted with human PC3 cells after 182 mins by gamma-counting analysis; format: ADME, organism-based, Adipose tissue, PC-3; details: in vivo
[10] = Ratio of biodistribution in tumor to muscle of NMRI nude mouse xenografted with human PC3 cells after 104 mins by gamma-counting analysis; format: ADME, organism-based, PC-3; details: in vivo
[11] = system: Mus musculus; experiment: Biodistribution in tumor of NMRI nude mouse xenografted with human PC3 cells at 3.6 to 5.1 MBq after 62 to 170 mins by PET imaging analysis; format: ADME, organism-based, Neoplasm, PC-3; details: in vivo
[12] = system: Mus musculus; experiment: Biodistribution in prostate of NMRI nude mouse xenografted with human PC3 cells after 104 mins by gamma-counting analysis; format: ADME, organism-based, Prostate gland, PC-3; details: in vivo
[13] = system: Lung; experiment: Biodistribution in lung of NMRI nude mouse xenografted with human PC3 cells after 104 mins by gamma-counting analysis; format: ADME, organism-based, PC-3; details: in vivo
[14] = system: Mus musculus; experiment: Biodistribution in gallbladder of NMRI nude mouse xenografted with human PC3 cells after 182 mins by gamma-counting analysis; format: ADME, organism-based, Gall bladder, PC-3; details: in vivo
[15] = system: Mus musculus; experiment: Biodistribution in tumor of NMRI nude mouse xenografted with human PC3 cells after 104 mins by gamma-counting analysis; format: ADME, organism-based, Neoplasm, PC-3; details: in vivo
[16] = system: Intestine; experiment: Biodistribution in intestine of NMRI nude mouse xenografted with human PC3 cells after 182 mins by gamma-counting analysis; format: ADME, organism-based, PC-3; details: in vivo
[17] = system: Mus musculus; experiment: Biodistribution in adrenal gland of NMRI nude mouse xenografted with human PC3 cells after 104 mins by gamma-counting analysis; format: ADME, organism-based, PC-3; details: in vivo
[18] = system: Mus musculus; experiment: Biodistribution in tumor of NMRI nude mouse xenografted with human PC3 cells after 182 mins by gamma-counting analysis; format: ADME, organism-based, Neoplasm, PC-3; details: in vivo
[19] = system: Heart; experiment: Biodistribution in heart of NMRI nude mouse xenografted with human PC3 cells after 104 mins by gamma-counting analysis; format: ADME, organism-based, PC-3; details: in vivo
[20] = system: Muscle tissue; experiment: Biodistribution in muscle of NMRI nude mouse xenografted with human PC3 cells after 104 mins by gamma-counting analysis; format: ADME, organism-based, PC-3; details: in vivo
[21] = system: Stomach; experiment: Biodistribution in stomach of NMRI nude mouse xenografted with human PC3 cells after 104 mins by gamma-counting analysis; format: ADME, organism-based, PC-3; details: in vivo
[22] = system: Spleen; experiment: Biodistribution in spleen of NMRI nude mouse xenografted with human PC3 cells after 182 mins by gamma-counting analysis; format: ADME, organism-based, PC-3; details: in vivo
[23] = system: Pancreas; experiment: Biodistribution in pancreas of NMRI nude mouse xenografted with human PC3 cells after 182 mins by gamma-counting analysis; format: ADME, organism-based, PC-3; details: in vivo
[24] = system: Lung; experiment: Biodistribution in lung of NMRI nude mouse xenografted with human PC3 cells after 182 mins by gamma-counting analysis; format: ADME, organism-based, PC-3; details: in vivo
[25] = system: Kidney; experiment: Biodistribution in kidney of NMRI nude mouse xenografted with human PC3 cells after 104 mins by gamma-counting analysis; format: ADME, organism-based, PC-3; details: in vivo
[26] = system: Bone; experiment: Biodistribution in bone of NMRI nude mouse xenografted with human PC3 cells after 182 mins by gamma-counting analysis; format: ADME, organism-based, Bone element, PC-3; details: in vivo
[27] = system: Blood; experiment: Biodistribution in blood of NMRI nude mouse xenografted with human PC3 cells after 182 mins by gamma-counting analysis; format: ADME, organism-based, PC-3; details: in vivo
[28] = Biodistribution in fat of NMRI nude mouse xenografted with human PC3 cells after 104 mins by gamma-counting analysis; format: ADME, organism-based, Adipose tissue, PC-3; details: in vivo
[29] = system: Mus musculus; experiment: Biodistribution in gallbladder of NMRI nude mouse xenografted with human PC3 cells after 104 mins by gamma-counting analysis; format: ADME, organism-based, Gall bladder, PC-3; details: in vivo
[30] = Biodistribution in urine of NMRI nude mouse xenografted with human PC3 cells after 104 mins by gamma-counting analysis; format: ADME, organism-based, PC-3; details: in vivo
[31] = Biodistribution in urine of NMRI nude mouse xenografted with human PC3 cells after 182 mins by gamma-counting analysis; format: ADME, organism-based, PC-3; details: in vivo
[32] = system: Muscle tissue; experiment: Biodistribution in muscle of NMRI nude mouse xenografted with human PC3 cells after 182 mins by gamma-counting analysis; format: ADME, organism-based, PC-3; details: in vivo
[33] = system: Mus musculus; experiment: Biodistribution in adrenal gland of NMRI nude mouse xenografted with human PC3 cells after 182 mins by gamma-counting analysis; format: ADME, organism-based, PC-3; details: in vivo
[34] = system: Mus musculus; experiment: Biodistribution in abdominal region of NMRI nude mouse xenografted with human PC3 cells at 3.6 to 5.1 MBq after 62 to 170 mins by PET imaging analysis; format: ADME, organism-based, Abdomen, PC-3; details: in vivo
[35] = system: Heart; experiment: Biodistribution in heart of NMRI nude mouse xenografted with human PC3 cells after 182 mins by gamma-counting analysis; format: ADME, organism-based, PC-3; details: in vivo
[36] = system: Mus musculus; experiment: Biodistribution in prostate of NMRI nude mouse xenografted with human PC3 cells after 182 mins by gamma-counting analysis; format: ADME, organism-based, Prostate gland, PC-3; details: in vivo
[37] = Ratio of biodistribution in tumor to blood of NMRI nude mouse xenografted with human PC3 cells after 104 mins by gamma-counting analysis; format: ADME, organism-based, PC-3; details: tumour
[38] = system: Intestine; experiment: Biodistribution in intestine of NMRI nude mouse xenografted with human PC3 cells after 104 mins by gamma-counting analysis; format: ADME, organism-based, PC-3; details: in vivo
[39] = system: Stomach; experiment: Biodistribution in stomach of NMRI nude mouse xenografted with human PC3 cells after 182 mins by gamma-counting analysis; format: ADME, organism-based, PC-3; details: in vivo
[40] = system: Pancreas; experiment: Biodistribution in pancreas of NMRI nude mouse xenografted with human PC3 cells after 104 mins by gamma-counting analysis; format: ADME, organism-based, PC-3; details: in vivo
[41] = Ratio of biodistribution in tumor to blood of NMRI nude mouse xenografted with human PC3 cells after 182 mins by gamma-counting analysis; format: ADME, organism-based, PC-3; details: tumour
[42] = Stability of the compound in PBS buffer up to 2 hrs; format: physicochemical
[43] = system: Blood; experiment: Biodistribution in blood of NMRI nude mouse xenografted with human PC3 cells after 104 mins by gamma-counting analysis; format: ADME, organism-based, PC-3; details: in vivo
[44] = system: Liver; experiment: Biodistribution in liver of NMRI nude mouse xenografted with human PC3 cells after 182 mins by gamma-counting analysis; format: ADME, organism-based, PC-3; details: in vivo
[45] = system: Spleen; experiment: Biodistribution in spleen of NMRI nude mouse xenografted with human PC3 cells after 104 mins by gamma-counting analysis; format: ADME, organism-based, PC-3; details: in vivo
[46] = molecular target: T1, Gastrin-releasing peptide receptor; experiment: Binding affinity to GRP receptor (unknown origin)

T1 sequence (P30550 whole entry): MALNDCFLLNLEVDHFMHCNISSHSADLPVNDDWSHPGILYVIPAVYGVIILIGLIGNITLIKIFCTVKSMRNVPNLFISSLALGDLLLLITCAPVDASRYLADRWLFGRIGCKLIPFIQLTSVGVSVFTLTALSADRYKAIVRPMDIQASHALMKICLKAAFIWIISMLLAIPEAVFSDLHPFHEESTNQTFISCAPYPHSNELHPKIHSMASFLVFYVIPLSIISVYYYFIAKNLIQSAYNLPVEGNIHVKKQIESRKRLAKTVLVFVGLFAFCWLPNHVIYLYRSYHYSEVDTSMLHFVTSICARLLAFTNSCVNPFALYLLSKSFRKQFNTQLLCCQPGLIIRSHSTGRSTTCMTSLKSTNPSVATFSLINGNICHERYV

Compound: CC(C)(C)[Si]([18F])(CCn1cc(CC(N)C(=O)O)nn1)C(C)(C)C (configuration not stated)
half-life [1]: 16 h
Drug metabolism [2]: Active
Drug metabolism [3]: Active

Compound: CC(C)C[C@H](NC(=O)C[C@H](O)[C@H](CC(C)C)NC(=O)[C@H](Cc1cnc[nH]1)NC(=O)CN(C)C(=O)[C@@H](NC(=O)[C@H](C)NC(=O)[C@H](Cc1c[nH]c2ccccc12)NC(=O)[C@H](CCC(N)=O)NC(=O)CCCCNC(=O)[C@H](CS(=O)(=O)O)NC(=O)[C@H](CS(=O)(=O)O)NC(=O)C(O)C(O)C(=O)NCCc1ccc([Si]([18F])(C(C)(C)C)C(C)(C)C)cc1)C(C)C)C(N)=O (some centres not stated)
Drug uptake [5]: 4.1 % ID/g
Drug uptake [6]: 25 % ID/g
Drug uptake [7]: 1.09 % ID/g
Ratio [8]: 8.41
Drug uptake [9]: 0.51 % ID/g
Ratio [10]: 5.03
Drug uptake [11]: Active
Drug uptake [12]: 0.44 % ID/g
Drug uptake [13]: 4.2 % ID/g
Drug uptake [14]: 128 % ID/g
Drug uptake [15]: 3.47 % ID/g
Drug uptake [16]: 9.5 % ID/g
Drug uptake [17]: 5.01 % ID/g
Drug uptake [18]: 2.44 % ID/g
Drug uptake [19]: 1.37 % ID/g
Drug uptake [20]: 0.69 % ID/g
Drug uptake [21]: 0.42 % ID/g
Drug uptake [22]: 1.32 % ID/g
Drug uptake [23]: 21 % ID/g
Drug uptake [24]: 1.94 % ID/g
Drug uptake [25]: 6 % ID/g
Drug uptake [26]: 0.92 % ID/g
Drug uptake [27]: 2.58 % ID/g
Drug uptake [28]: 1.24 % ID/g
Drug uptake [29]: 36 % ID/g
Drug uptake [30]: 25 % ID/g
Drug uptake [31]: 20 % ID/g
Drug uptake [32]: 0.29 % ID/g
Drug uptake [33]: 2.07 % ID/g
Drug uptake [34]: Not Active
Drug uptake [35]: 0.85 % ID/g
Drug uptake [36]: 0.29 % ID/g
Ratio [37]: 0.65
Drug uptake [38]: 12.6 % ID/g
Drug uptake [39]: 0.8 % ID/g
Drug uptake [40]: 46 % ID/g
Ratio [41]: 0.95
Stability [42]: Stable
Drug uptake [43]: 5.37 % ID/g
Drug uptake [44]: 13 % ID/g
Drug uptake [45]: 2.15 % ID/g

Compound: CC(C)(C)[Si](F)(CCO)C(C)(C)C
half-life [1]: 8 h

Results, then the compound that gave them:

IC50 [4]: 23 nM
Compound: CC(C)C[C@H](NC(=O)C[C@H](O)[C@H](CC(C)C)NC(=O)[C@H](Cc1cnc[nH]1)NC(=O)CN(C)C(=O)[C@@H](NC(=O)[C@H](C)NC(=O)[C@H](Cc1c[nH]c2ccccc12)NC(=O)[C@H](CCC(N)=O)NC(=O)CCCCNC(=O)[C@H](CCCNC(=N)N)NC(=O)C(O)C(O)C(=O)NCCc1ccc([Si](F)(C(C)(C)C)C(C)(C)C)cc1)C(C)C)C(N)=O (some centres not stated)

IC50 [46]: 22.9 nM
Compound: CC(C)C[C@H](NC(=O)C[C@H](O)[C@H](CC(C)C)NC(=O)[C@H](Cc1cnc[nH]1)NC(=O)CN(C)C(=O)[C@@H](NC(=O)[C@H](C)NC(=O)[C@H](Cc1c[nH]c2ccccc12)NC(=O)[C@H](CCC(N)=O)NC(=O)CCCCNC(=O)[C@H](CCCNC(=N)N)NC(=O)Cc1ccc([Si](F)(C(C)(C)C)C(C)(C)C)cc1)C(C)C)C(N)=O

From ChEMBL document CHEMBL2429805, “Studies toward the development of new silicon-containing building blocks for the direct (18)F-labeling of peptides” (J Med Chem, 2013)
